Patent US6420371B1, “Quinazolinone-containing pharmaceutical compositions for prevention of neovascularization and for treating malignancies” (Madasit Medical Research Services & Development Co., Ltd., priority 1997, dated 2002)

Tests used:
[1] = system: bovine corneal endothelial cells; experiment: Incorporation of sulfate, proline, lysine and glycine into ECM (CDP and NCDP); format: cell-based; details: eight days after seeding
Protocol: Corneal endothelial cells were seeded at a confluent density and grown as described in Example 5 above. The cells were cultured with or without Halofuginone in the presence of either Na2^35SO4 (FIG. 8A), ^3H-proline (FIG. 8B), ^14C-lysine (FIG. 8C) or ^14C-glycine (FIG. […]). Eight days after seeding, the cell layer was dissolved substantially as described in Example 5 above. The underlying ECM was then either trypsinized to determine the effect of Halofuginone on incorporation of labelled material into total protein, substantially as described in Example 5 above, or subjected to sequential digestions with collagenase and trypsin to evaluate the effect of Halofuginone on both collagenase-digestible proteins (CDP) and non-collagenase digestible proteins (NCDP).

tumor cells = experiment: Tunnel staining of histological tumor sections (necrosis and apoptosis); format: in vivo; details: tumors from halofuginone treated mice, FIG. 1F panel B
Source text: Histological sections of the tumors were subjected to tunnel staining [Gavrieli, Y. et al., J. Cell Biol., Vol. 119, pp. 493-501, 1992], in order to evaluate the extent of tumor cell necrosis and apoptosis. […] The high degree of cell apoptosis and necrosis in halofuginone treated tumors is in all likelihood due to an inhibition of angiogenesis and […] deposition, both critical factors supporting growth and survival of the tumor cells.

For `O=C(CC1NCCCC1O)Cn1cnc2cc(Br)c(Cl)cc2c1=O` (centres unmarked) [Halofuginone], the “incorporation of sulfate, proline, lysine and glycine into both CDP and NCDP” value [1] was “inhibited” and the “tunnel staining of tumor sections (cell apoptosis and necrosis)” value (tumor cells) was “majority of cells in tumor sections derived from halofuginone treated mice exhibited an intense staining”.
